# Results taken from patent US20230138851A1, “NOVEL ALKYNE DERIVATIVES” (CARNA BIOSCIENCES, INC., priority 2020, published 2023).
# Experiments:
# Type in all cases: biochemical
# DYRK1A = target: T1, DYRK1A (Homo sapiens, UniProt Q13627); assay: Inhibition test on activity of DYRK family, mobility shift assay (MSA), DYRK1A; conditions: ATP 100 μM, FITC-labeled DYRKtide peptide substrate, room temperature 1 hour
# T1 construct: purchased Carna Biosciences, Inc. 04-130
# Procedure, shortened: (§1)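 FITC-DYRKtide phosphorylation in 20 mM HEPES pH 7.5 with MgCl2; ATP in the substrate mix was 100 μM (DYRK1A), 200 μM (DYRK1B), 40 μM (DYRK2) or 20 μM (DYRK3). Reactions ran 1 h at room temperature; inhibition from P/(P+S) versus blank and DMSO control, IC50 by regression on log concentration.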
# DYRK2 = target: T2, DYRK2 (Homo sapiens, UniProt Q92630); assay: Inhibition test on activity of DYRK family, mobility shift assay (MSA), DYRK2; conditions: ATP 40 μM, FITC-labeled DYRKtide peptide substrate, room temperature 1 hour; read-out: Inhibitory Activity 2 (IC50 against DYRK2)
# T2 construct: purchased Carna Biosciences, Inc. 04-132
# T2 sequence (Q92630 1-601): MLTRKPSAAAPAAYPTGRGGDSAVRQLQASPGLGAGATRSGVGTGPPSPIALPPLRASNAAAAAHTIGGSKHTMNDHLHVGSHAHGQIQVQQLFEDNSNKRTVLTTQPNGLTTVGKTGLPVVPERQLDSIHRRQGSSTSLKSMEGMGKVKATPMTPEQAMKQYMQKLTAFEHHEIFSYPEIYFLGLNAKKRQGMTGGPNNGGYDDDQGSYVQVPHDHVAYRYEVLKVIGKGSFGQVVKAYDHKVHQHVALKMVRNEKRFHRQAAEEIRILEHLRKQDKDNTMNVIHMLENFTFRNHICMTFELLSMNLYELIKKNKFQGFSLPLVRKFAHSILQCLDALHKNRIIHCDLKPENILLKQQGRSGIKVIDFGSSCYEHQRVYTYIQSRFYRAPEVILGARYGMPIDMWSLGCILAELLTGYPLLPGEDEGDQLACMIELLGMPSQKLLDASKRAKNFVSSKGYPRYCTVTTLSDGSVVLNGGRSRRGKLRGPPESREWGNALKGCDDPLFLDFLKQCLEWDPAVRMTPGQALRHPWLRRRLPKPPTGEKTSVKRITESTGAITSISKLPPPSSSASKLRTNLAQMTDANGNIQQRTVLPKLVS
# Procedure, shortened: as §1
# DYRK3 = target: T3, DYRK3 (Homo sapiens, UniProt O43781); assay: Inhibition test on activity of DYRK family, mobility shift assay (MSA), DYRK3; conditions: ATP 20 μM, FITC-labeled DYRKtide peptide substrate, room temperature 1 hour; for IC50: read-out: Inhibitory Activity 3 (IC50 against DYRK3)
# T3 construct: purchased Carna Biosciences, Inc. 04-133
# T3 sequence (O43781 1-588): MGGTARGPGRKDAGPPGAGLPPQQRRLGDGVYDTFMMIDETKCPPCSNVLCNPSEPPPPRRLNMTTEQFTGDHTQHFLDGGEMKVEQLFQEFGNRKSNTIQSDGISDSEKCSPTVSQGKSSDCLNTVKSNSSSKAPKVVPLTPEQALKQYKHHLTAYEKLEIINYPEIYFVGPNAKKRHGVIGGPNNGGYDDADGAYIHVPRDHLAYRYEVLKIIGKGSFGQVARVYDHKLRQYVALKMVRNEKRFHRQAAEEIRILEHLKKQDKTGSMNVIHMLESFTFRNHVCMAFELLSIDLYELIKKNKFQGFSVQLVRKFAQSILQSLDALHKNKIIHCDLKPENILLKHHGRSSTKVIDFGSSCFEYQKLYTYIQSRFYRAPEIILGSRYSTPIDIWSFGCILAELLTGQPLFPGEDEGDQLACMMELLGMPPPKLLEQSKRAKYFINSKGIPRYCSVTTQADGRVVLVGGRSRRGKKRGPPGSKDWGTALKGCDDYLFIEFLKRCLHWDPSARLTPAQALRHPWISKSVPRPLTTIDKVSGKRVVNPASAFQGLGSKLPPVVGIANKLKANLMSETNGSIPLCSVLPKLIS
# Procedure, shortened: as §1
# DYRK1B = target: T4, DYRK1B (Homo sapiens, UniProt Q9Y463); assay: Inhibition test on activity of DYRK family, mobility shift assay (MSA), DYRK1B; set-up: Inhibitory Activity 1b (IC50 against DYRK1B): scale not given here; conditions: ATP 200 μM, FITC-labeled DYRKtide peptide substrate, room temperature 1 hour
# T4 construct: purchased Carna Biosciences, Inc. 04-131
# Method: [Inhibition Test on Activity of DYRK Family (DYRK1A, DYRK1B, DYRK2, and […])]
# (Method for Measuring Kinase Activity)
# The kinase activity was measured by mobility shift assay (MSA) method using QuickScout Screening Assist™ MSA (commercially available kit manufactured by Carna Biosciences, Inc.). The substrate of the kinase reaction used was an FITC-labeled DYRKtide peptide included in the kit. An assay buffer [20 mM HEPES, 0.01% Triton X-100™, 2 mM dithiothreitol, pH 7.5] was used to create a substrate mixture solution with a substrate (4 μM), MgCl2 (20 mM), and ATP (DYRK1A: 100 μM; DYRK1B: 200 μM; DYRK2: 40 μM; and DYRK3: 20 μM). In addition, kinases (DYRK1A: manufactured by Carna Biosciences, Inc., Cat. No. 04-130; DYRK1B: manufactured by Carna Biosciences, Inc., Cat. No. 04-131; DYRK2; manufactured by Carna Biosciences, Inc., Cat. No. 04-132; and DYRK3; manufactured by Carna Biosciences, Inc., Cat. No. 04-133) were diluted with the assay buffer to prepare enzyme solutions (DYRK1A: 0.2 ng/μL; DYRK1B: 0.08 ng/μL; DYRK2: 0.04 ng/μL; and DYRK3: 0.25 ng/μL). The 10 mM solution of the test compound in DMSO was further diluted with DMSO to 10 levels of the concentration (0.00003 mM, 0.0001 mM, 0.0003 mM, 0.001 mM, 0.003 mM, 0.01 mM, 0.03 mM, 0.1 mM, 0.3 mM, and 1 mM), each of which was subjected to 25-fold dilution with the assay buffer to obtain a drug solution (4% DMSO solution). 5 μL of the drug solution or a control solution (4% DMSO-assay buffer), 5 μL of the substrate mixture solution, and 10 μL of the enzyme solution were mixed in the wells of a polypropylene 384-well plate and allowed to react at room temperature for 1 hour, and then the reaction was quenched by adding 60 μL of the termination buffer included in the kit. Subsequently, the quantities of the substrates (S) and the phosphorylated substrate (P) in the reaction solution were measured using LabChip EZ Reader II system (manufactured by Caliper Life Sciences) according to the protocol of the assay kit.
# (Method for Evaluating Inhibitory Activity)
# The heights of the peaks of the “substrate” and the “phosphorylated substrate” were expressed as S and P, respectively, and a blank containing the assay buffer instead of the enzyme solution was also measured.
# The inhibition rate (%) of the test compound was calculated according to the following equation:
# Inhibition rate (%)=(1−(C−A)/(B−A))×100
# wherein, A, B, and C represent P/(P+S) of the blank well, P/(P+S) of the control solution well, and P/(P+S) of the compound-containing well, respectively.
# The IC50 value was calculated via a regression analysis of the inhibition rate and the test compound concentration (logarithmic value).
# The inhibiting activities of representative compounds of the present invention are shown against DYRK1A, DYRK1B, DYRK2, and DYRK3 in Tables 7 and 8. The kinase activity inhibitory effect was indicated with the mark *** at an IC50 value of less than 0.01 μM; the mark ** at 0.01 μM or more and less than 0.1 μM; the mark * at 0.1 μM or more and less than 1 μM; and the mark — at 1 μM or more (N.D. indicates not measured).
# T4 sequence (Q9Y463 whole entry): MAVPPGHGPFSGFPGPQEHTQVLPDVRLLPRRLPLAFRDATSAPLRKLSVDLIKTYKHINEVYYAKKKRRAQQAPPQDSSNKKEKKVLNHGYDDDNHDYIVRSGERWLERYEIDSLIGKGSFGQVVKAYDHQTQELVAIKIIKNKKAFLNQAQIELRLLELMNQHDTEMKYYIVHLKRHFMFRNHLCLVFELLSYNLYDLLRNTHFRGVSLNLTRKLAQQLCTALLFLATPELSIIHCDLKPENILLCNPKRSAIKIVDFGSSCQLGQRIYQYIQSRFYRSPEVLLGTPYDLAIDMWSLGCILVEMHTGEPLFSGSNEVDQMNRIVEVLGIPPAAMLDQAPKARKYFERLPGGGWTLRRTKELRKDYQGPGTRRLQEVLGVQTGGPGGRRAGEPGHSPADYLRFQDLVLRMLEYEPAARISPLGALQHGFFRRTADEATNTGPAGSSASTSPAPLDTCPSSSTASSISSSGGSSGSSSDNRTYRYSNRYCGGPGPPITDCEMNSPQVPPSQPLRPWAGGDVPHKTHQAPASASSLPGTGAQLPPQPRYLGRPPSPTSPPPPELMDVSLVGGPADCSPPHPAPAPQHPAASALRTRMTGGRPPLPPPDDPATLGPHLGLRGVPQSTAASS
Inhibitory Activity 1a (IC50 against DYRK1A) (DYRK1A),IC50 (DYRK2) [nM],IC50 (DYRK3) [nM],Inhibitory Activity 1b (IC50 against DYRK1B) (DYRK1B),Inhibitory Activity 3 (IC50 against DYRK3) (DYRK3),Compound
* * *,100 to 1000,100 to 1000,* * *,,"CC#CC1CNC(=O)N1c1nc2c(ccc3ncn(CCO)c32)s1 (racemic) [Example 31, (RS)-1-[8-(2-hydroxyethyl)-8H-imidazo[4′,5′:5,6]benz[1,2-d]thiazol-2-yl]-5-(prop-1-yn-1-yl)imidazolidin-2-one]"
* * *,100 to 1000,100 to 1000,* * *,,"CC#C[C@@H]1[C@H](C)NC(=O)N1c1nc2c3c(ccc2s1)OCC3 [Example 5, (4S,5R)-1-(7,8-dihydrobenzofuro[4,5-d]thiazol-2-yl)-4-methyl-5-(prop-1-yn-1-yl)imidazolidin-2-one]"
* * *,100 to 1000,,* * *,* *,"CC#CC1CNC(=O)N1c1nc2c3c(ccc2s1)OCC3 (racemic) [Example 8, (RS)-1-(7,8-dihydrobenzofuro[4,5-d]thiazol-2-yl)-5-(prop-1-yn-1-yl)imidazolidin-2-one]"
* * *,100 to 1000,,* * *,* *,"CC#CC1CNC(=O)N1c1nc2c3c(ccc2s1)OCO3 (racemic) [Example 1, (RS)-1-([1,3]dioxolo[4′,5′:5,6]benzo[1,2-d]thiazol-7-yl)-5-(prop-1-yn-1-yl)imidazolidin-2-one]"
* * *,≥ 1000,100 to 1000,* * *,,"CC#CC1CNC(=O)N1c1nc2c(ccc3nnn(C)c32)s1 (racemic) [Example 28, (RS)-1-(1-methyl-1H-thiazolo[4′,5′:3,4]benz[1,2-d][1,2,3]triazol-7-yl)-5-(prop-1-yn-1-yl)imidazolidin-2-one]"
* *,≥ 1000,≥ 1000,* *,,"CC#C[C@H]1CNC(=O)N1c1nc2c3c(ccc2s1)OCO3 [Example 3, (S)-1-([1,3]dioxolo[4′,5′:5,6]benzo[1,2-d]thiazol-7-yl)-5-(1-propyn-1-yl)imidazolidin-2-one]"
